Converted amounts (≈) assume the structure as drawn.
Experiments:
[1] = system: HeLa cells; format: cell-based
[2] = system: TC-83 virus; experiment: microbe, parasite or virus in culture; format: cell-based, Venezuelan equine encephalitis virus (VEEV)
[3] = system: VEEV (ZPC738 virulent strain); experiment: microbe, parasite or virus in culture; format: cell-based, Venezuelan equine encephalitis virus (VEEV)
[4] = system: TC-83; design: species or system C3H/HeN mice; conditions: mouse, in vivo
[5] = system: VEEV vaccine strain (TC-83); conditions: cited from earlier work
[6] = system: TC-83; conditions: mouse, in vivo, ip; cited from earlier work
[7] = pH 7.4; cited from earlier work
[8] = Venezuelan equine encephalitis virus, HeLa, 24 h

CO/C1=C\C(C)=C\[C@@H](C)[C@@H](O)[C@@H](C)C/C(C)=C/C=C/[C@H](OC)[C@@H]([C@@H](C)[C@@H](O)[C@H](C)[C@@]2(O)C[C@@H](O)[C@H](C)[C@@H](C(C)C)O2)OC1=O [BAF, bafilomycin A]
LC-MSN internalization / uptake in presence of inhibitor (in words) [1]: almost completely inhibited
LC-MSN internalization in presence of inhibitor (in words) [1]: clearly inhibited

CN(C)CCCN1c2ccccc2Sc2ccc(Cl)cc21 [CPZ, chlorpromazine]
LC-MSN internalization in presence of inhibitor (in words) [1]: clearly inhibited
reduction of the percentage of cells that internalized LC-MSNs [1]: 84%

O=C(N/N=C/c1ccc(O)c(O)c1)c1cc2ccccc2cc1O [DYN, dynasore]
LC-MSN internalization in presence of inhibitor (in words) [1]: clearly inhibited
reduction of the percentage of cells that internalized LC-MSNs [1]: 71%

Oc1ccc2ccccc2c1SSc1c(O)ccc2ccccc12 [IPA-3]
LC-MSN internalization in presence of inhibitor (in words) [1]: not

CN1CCN(C)C(=Nc2ccc([N+](=O)[O-])cc2C(=O)Nc2ccccc2)C1 [ML336, 2-[(1,4-dimethylpiperazin-2-ylidene)amino]-5-nitro-N-phenylbenzamide]
TC-83 viral inhibition (in words) ([2]; HeLa cells, increasing concentration or LC-MSN mass): dose-dependent manner
IC50 [2, 8]: 163 nM
VEEV viral inhibition (in words) ([3]; HeLa cells, 24 hours): dose-dependent manner
IC50 [3, 8]: 15 nM
brain viral load / titer vs PBS (in words) [4]: not significantly different from PBS treated animals
reduction of viral titer ([5]; at nanomolar concentrations): 630,000 fold
EC90 [5]: 170 nM
survival rate [6]: 71%
solubility [7]: 40 µg/mL (≈ 109 µM)

CCCCCCCCCCCCCC(=O)O[C@@H]1[C@@H](C)[C@@]2(O)[C@@H](C=C(CO)C[C@]3(O)C(=O)C(C)=C[C@@H]23)[C@@H]2C(C)(C)[C@]12OC(C)=O [PMA, phorbol 12-myristate 13-acetate]
LC-MSN internalization in presence of inhibitor (in words) [1]: not

From patent US11045554B1 (National Technology & Engineering Solutions of Sandia, LLC, priority 2018, dated 2021)
